Laboratory results reported in patent publication US8008425B2, “Thiophene compound having sulfonyl group and process for producing the same” (Nissan Chemical Industries, Ltd., priority 2005, dated 2011).

Assay: Solubility test
Assay type: physicochemical
Details: 25° C., ultrasonic waves, 5 mg, solvent added 50 μL by 50 μL
Description: The solubility of each of the sulfonylthiophene compounds synthesized in Examples 21 and 22 was determined under ultrasonic waves at 25° C. by adding, to aliquots (5 mg) of the sulfonylthiophene compound, tetrahydrofuran (THF), toluene, N,N-dimethylformamide (DMF), chloroform, ethyl acetate and ethanol 50 μL by 50 μL, respectively, until they were dissolved. The level of solubility was ranked in accordance with the following standards. • ⊚: Dissolved with 50 μL (concentration: 10%) • ◯: Dissolved with 100 μL (concentration: 5%) • Δ: Dissolved with 200 μL (concentration: 2.5%) • X: Not dissolved even by the addition of 500 μL (concentration: 1% or lower)

SMILES | level of solubility (Chloroform) | level of solubility (DMF) | level of solubility (Ethanol) | level of solubility (Ethyl acetate) | level of solubility (THF) | level of solubility (Toluene)
CCCCCCCCS(=O)(=O)c1c(-c2ccc(N(c3ccccc3)c3ccccc3)cc2)sc(-c2ccc(N(c3ccccc3)c3ccccc3)cc2)c1S(=O)(=O)CCCCCCCC [Example 21, 4,4′-{3,4-bis(octane-1-sulfonyl)-thiophene-2,5-diyl}bis(N,N-diphenylaniline)] | ⊚ (Dissolved with 50 μL (concentration: 10%)) | Δ (Dissolved with 200 μL (concentration: 2.5%)) | X (Not dissolved even by the addition of 500 μL (concentration: 1% or lower)) | ◯ (Dissolved with 100 μL (concentration: 5%)) | ◯ (Dissolved with 100 μL (concentration: 5%)) | ◯ (Dissolved with 100 μL (concentration: 5%))
CCCCCCCCS(=O)(=O)c1cc(-c2ccc(N(c3ccccc3)c3ccccc3)cc2)sc1-c1ccc(N(c2ccccc2)c2ccccc2)cc1 [Example 22, 4,4′-{3-(octane-1-sulfonyl)-thiophene-2,5-diyl}bis(N,N-diphenylaniline)] | ⊚ (Dissolved with 50 μL (concentration: 10%)) | ⊚ (Dissolved with 50 μL (concentration: 10%)) | X (Not dissolved even by the addition of 500 μL (concentration: 1% or lower)) | ⊚ (Dissolved with 50 μL (concentration: 10%)) | ⊚ (Dissolved with 50 μL (concentration: 10%)) | ⊚ (Dissolved with 50 μL (concentration: 10%))
